Laboratory results: ChEMBL document CHEMBL3638545 (2015)

Target: Sodium channel protein type 5 subunit alpha (Homo sapiens, UniProt Q14524)
Test: Electrophysiological Assay: Patch voltage clamp electrophysiology allows for the direct measurement and quantification of block of voltage-gated sodium channels (NaV's), and allows the determination of the time- and voltage-dependence of block which has been interpreted as differential binding to the resting, open, and inactivated states of the sodium channel (Hille, B., Journal of General …
Type: cell-based, HEK293

Sodium channel protein type 5 subunit alpha, sequence (Q14524 whole entry): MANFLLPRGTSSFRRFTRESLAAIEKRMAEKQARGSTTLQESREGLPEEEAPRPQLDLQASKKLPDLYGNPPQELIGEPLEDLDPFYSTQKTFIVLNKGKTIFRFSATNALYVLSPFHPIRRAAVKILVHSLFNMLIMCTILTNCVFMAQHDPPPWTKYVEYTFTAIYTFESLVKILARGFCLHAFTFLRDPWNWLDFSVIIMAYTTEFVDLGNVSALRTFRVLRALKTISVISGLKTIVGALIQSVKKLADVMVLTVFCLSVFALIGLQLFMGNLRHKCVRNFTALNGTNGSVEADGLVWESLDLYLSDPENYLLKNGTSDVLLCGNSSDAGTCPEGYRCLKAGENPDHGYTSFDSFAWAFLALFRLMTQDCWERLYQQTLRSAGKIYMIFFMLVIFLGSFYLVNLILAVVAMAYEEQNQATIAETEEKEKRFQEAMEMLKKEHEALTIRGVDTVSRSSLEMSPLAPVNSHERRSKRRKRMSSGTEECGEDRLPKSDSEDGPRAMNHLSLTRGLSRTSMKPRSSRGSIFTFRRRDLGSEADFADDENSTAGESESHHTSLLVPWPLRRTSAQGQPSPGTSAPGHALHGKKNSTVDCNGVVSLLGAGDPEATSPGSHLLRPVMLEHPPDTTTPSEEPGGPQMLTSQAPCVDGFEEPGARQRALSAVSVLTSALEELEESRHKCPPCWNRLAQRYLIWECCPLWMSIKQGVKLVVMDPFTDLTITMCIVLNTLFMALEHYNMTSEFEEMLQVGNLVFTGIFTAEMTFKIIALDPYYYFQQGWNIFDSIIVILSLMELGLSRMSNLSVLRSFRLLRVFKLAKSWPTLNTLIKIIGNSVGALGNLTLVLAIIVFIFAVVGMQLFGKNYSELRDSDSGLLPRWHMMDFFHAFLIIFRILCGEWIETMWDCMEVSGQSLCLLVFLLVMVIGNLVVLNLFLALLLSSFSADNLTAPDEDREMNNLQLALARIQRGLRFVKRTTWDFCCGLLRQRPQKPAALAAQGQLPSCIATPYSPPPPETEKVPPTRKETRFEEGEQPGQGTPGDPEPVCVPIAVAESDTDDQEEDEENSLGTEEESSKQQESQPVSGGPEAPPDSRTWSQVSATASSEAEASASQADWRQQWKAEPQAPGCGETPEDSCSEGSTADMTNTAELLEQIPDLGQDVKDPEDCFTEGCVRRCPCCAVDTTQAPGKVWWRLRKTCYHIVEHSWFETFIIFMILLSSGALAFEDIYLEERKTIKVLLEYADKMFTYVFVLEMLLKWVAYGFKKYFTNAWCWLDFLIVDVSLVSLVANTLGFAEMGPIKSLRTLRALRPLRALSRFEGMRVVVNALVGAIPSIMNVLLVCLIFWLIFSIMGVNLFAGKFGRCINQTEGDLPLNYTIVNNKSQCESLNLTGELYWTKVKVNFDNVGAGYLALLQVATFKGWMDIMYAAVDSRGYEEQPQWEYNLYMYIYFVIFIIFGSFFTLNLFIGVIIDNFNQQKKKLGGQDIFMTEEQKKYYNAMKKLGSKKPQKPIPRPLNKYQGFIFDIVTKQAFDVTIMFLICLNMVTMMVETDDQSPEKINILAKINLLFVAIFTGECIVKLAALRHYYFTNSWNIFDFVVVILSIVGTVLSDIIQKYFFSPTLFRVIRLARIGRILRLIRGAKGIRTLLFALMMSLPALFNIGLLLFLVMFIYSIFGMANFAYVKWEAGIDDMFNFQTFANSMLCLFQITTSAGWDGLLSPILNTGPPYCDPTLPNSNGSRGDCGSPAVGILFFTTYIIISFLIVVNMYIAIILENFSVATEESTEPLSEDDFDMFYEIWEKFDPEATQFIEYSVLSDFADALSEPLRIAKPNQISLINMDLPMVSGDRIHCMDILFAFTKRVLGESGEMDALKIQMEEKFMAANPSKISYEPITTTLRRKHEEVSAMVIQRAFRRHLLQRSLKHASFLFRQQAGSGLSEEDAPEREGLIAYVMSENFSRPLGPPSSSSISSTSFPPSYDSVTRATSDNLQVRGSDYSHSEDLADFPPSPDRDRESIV

Structure (SMILES)	IC50
COCCS(=O)(=O)NC(=O)c1cc(C2CC2)c(OCC23CC4CC(CC(C4)C2)C3)cc1F	101 nM
O=C(NS(=O)(=O)N1CCC1)c1cc(C2CC2)c(OCC23CC4(F)CC(F)(CC(F)(C4)C2)C3)cc1F	950 nM
CN(C)S(=O)(=O)NC(=O)c1cc(Cl)c(OCC23CC4CC(CC(C4)C2)C3)cc1F	772 nM
CS(=O)(=O)NC(=O)c1cc(C2CC2)c(OCC23CC4CC(C2)C(F)(F)C(C4)C3)cc1F	714 nM
CC1(C)CCc2cc(OCc3cc(F)c(C(=O)NS(=O)(=O)N4CCC4)cc3Cl)ccc2O1	653 nM
O=C(NS(=O)(=O)N1CCC1)c1cc(C2CC2)c(OCC2(C(F)(F)F)CCCCC2)cc1F	350 nM
O=C(NS(=O)(=O)N1CCOCC1)c1cc(C2CC2)c(OCC23CC4CC(CC(C4)C2)C3)cc1F	14 nM
